According to patent US7419980B2, “Fused-aryl and heteroaryl derivatives and methods of their use” (Wyeth, priority 2003, dated 2008):
pEC50: −log10 of the molar value. Structures can show the parent of a compound that is named as a salt.

Target: T1, human hNET (Homo sapiens, UniProt P23975)
T1 construct: expressed in transfected cells; host or cells: MDCK-Net6 (MDCK cells stably transfected with hNET)
Assay: Norepinephrine (NE) uptake assay in MDCK-Net6 cells
Assay type: cell-based
Details: 1 μM test compound; [3H]NE uptake, MDCK-Net6 cells; read-out: % Inhibition @ 1 μM (hNET)
Procedure: MDCK-Net6 cells, stably transfected with human hNET (Pacholczyk, T., R. D. Blakely, and S. G. Amara, Nature, 1991, 350(6316): p. 350-4) were cultured in growth medium containing high glucose DMEM (Gibco, Cat. No. 11995), 10% FBS (dialyzed, heat-inactivated, US Bio-Technologies, Lot FBD1129HI) and 500 μg/ml G418 (Gibco, Cat. No. 10131). Cells were plated at 300,000/T75 flask and cells were split twice weekly. The JAR cell line (human placental choriocarcinoma) was purchased from ATCC (Cat. No. HTB-144). The cells were cultured in growth medium containing RPMI 1640 (Gibco, Cat. No. 72400), 10% FBS (Irvine, Cat. No. 3000), 1% sodium pyruvate (Gibco, Cat. No. 1136) and 0.25% glucose. Cells were plated at 250,000 cells/T75 flask and split twice weekly. For all assays, cells were plated in Wallac 96-well sterile plates (PerkinElmer, Cat. No. 3983498).
On day 1, cells were plated at 3,000 cells/well in growth medium and maintained in a cell incubator (37° C., 5% CO2). On day 2, growth medium was replaced with 200 μl of assay buffer (25 mM HEPES; 120 mM NaCl; 5 mM KCl; 2.5 mM CaCl2; 1.2 mM MgSO4; 2 mg/ml glucose (pH 7.4, 37° C.)) containing 0.2 mg/ml ascorbic acid and 10 μM pargyline. Plates containing cells with 200 μl of assay buffer were equilibrated for 10 minutes at 37° C. prior to addition of compounds. A stock solution of desipramine was prepared in DMSO (10 mM) and delivered to triplicate wells containing cells for a final tert concentration of 1 μM. Data from these wells were used to define non-specific NE uptake (minimum NE uptake). Test compounds were prepared in DMSO (10 mM) and diluted in assay buffer according to tert range (1 to 10,000 nM). Twenty-five microliters of assay buffer (maximum NE uptake) or tert compound were added directly to triplicate wells containing cells in 200 μl of assay buffer. The cells in assay buffer with tert compounds were incubated for 20 minutes at 37° C. To initiate the NE uptake, [^3H]NE diluted in assay buffer (120 nM final assay concentration) was delivered in 25 μl aliquots to each well and the plates were incubated for 5 minutes (37° C.). The reaction was terminated by decanting the supernatant from the plate. The plates containing cells were washed twice with 200 μl assay buffer (37° C.) to remove free radioligand. The plates were then inverted, left to dry for 2 minutes, then reinverted and air-dried for an additional 10 minutes. The cells were lysed in 25 μl of 0.25 N NaOH solution (4° C.), placed on a shake table and vigorously shaken for 5 minutes. After cell lysis, 75 μl of scintillation cocktail was added to each well and the plates were sealed with film tape. The plates were returned to the shake table and vigorously shaken for a minimum of 10 minutes to ensure adequate partitioning of organic and aqueous solutions. The plates were counted in a Wallac Microbeta counter (PerkinElmer) to collect the raw cpm data.
For each experiment, a data stream of cpm values collected from the Wallac Microbeta counter was downloaded to a Microsoft Excel statistical application program. Calculations of EC50 values were made using the transformed-both-sides logistic dose response program written by Wyeth Biometrics Department. The statistical program uses mean cpm values from wells representing maximum binding or uptake (assay buffer) and mean cpm values from wells representing minimum binding or uptake ((1 μM desipramine (hNET) or 1 μM paroxetine (hSERT)). Estimation of the EC50 value was completed on a log scale and the line was fit between the maximum and minimum binding or uptake values. All graphic data representation was generated by normalizing each data point to a mean percent based on the maximum and minimum binding or uptake values. The EC50 values reported from multiple experiments were calculated by pooling the raw data from each experiment and analyzing the pooled data as one experiment.

T1 sequence (P23975 whole entry): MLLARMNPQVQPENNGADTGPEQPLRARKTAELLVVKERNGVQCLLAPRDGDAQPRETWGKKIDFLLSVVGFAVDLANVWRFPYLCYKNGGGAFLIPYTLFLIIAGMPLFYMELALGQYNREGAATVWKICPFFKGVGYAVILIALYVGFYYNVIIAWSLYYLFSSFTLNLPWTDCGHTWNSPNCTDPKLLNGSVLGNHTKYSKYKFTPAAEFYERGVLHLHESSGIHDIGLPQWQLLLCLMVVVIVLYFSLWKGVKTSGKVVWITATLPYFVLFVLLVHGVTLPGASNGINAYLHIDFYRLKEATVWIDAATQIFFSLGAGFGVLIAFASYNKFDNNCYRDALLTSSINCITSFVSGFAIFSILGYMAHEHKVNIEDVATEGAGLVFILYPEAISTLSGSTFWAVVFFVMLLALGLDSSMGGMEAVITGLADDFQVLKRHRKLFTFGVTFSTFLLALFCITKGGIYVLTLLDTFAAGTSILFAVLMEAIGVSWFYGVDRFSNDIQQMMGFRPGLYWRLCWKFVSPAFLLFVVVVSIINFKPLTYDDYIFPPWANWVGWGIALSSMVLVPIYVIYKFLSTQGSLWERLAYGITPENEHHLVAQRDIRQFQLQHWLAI

Structure (SMILES)	inhibition at 1 µM [%]
OC1(C(CN2CCOCC2)c2ccc3ccccc3c2)CCC1 (stereo not drawn) [Example 109, 1-[2-morpholin-4-yl-1-(2-naphthyl)ethyl]cyclobutanol Hydrochloride]	0
CCC(O)(CC)C(CN1CCNCC1)c1cccc2ccccc12 (stereo not drawn) [Example 53, 3-ethyl-2-(1-naphthyl)-1-piperazin-1-ylpentan-3-ol Dihydrochloride]	34
CN1CCN(CC(c2ccc3ccccc3c2)C2(O)CCCCC2)CC1 (stereo not drawn) [Example 64, 1-[2-(4-methylpiperazin-1-yl)-1-(2-naphthyl)ethyl]cyclohexanol Dihydrochloride]	28
CCC(O)(CC)C(CN1CCN(C)CC1)c1cccc2ccccc12 (stereo not drawn) [Example 89, 3-ethyl-1-(4-methylpiperazin-1-yl)-2-(1-naphthyl)pentan-3-ol Dihydrochloride]	15
CCC1CCC(O)(C(CN2CCNCC2)c2cccc3ccccc23)CC1 (stereo not drawn) [Example 91, 4-ethyl-1-[1-(1-naphthyl)-2-piperazin-1-ylethyl]cyclohexanol Dihydrochloride]	14
OC1(C(CN2CCNCC2)c2cccc3ccccc23)CCCC1 (stereo not drawn) [Example 45, 1-[1-(1-naphthyl)-2-piperazin-1-ylethyl]cyclopentanol Dihydrochloride]	44
COc1ccc2scc(C(CN3CCNCC3)C3(O)CCCCC3)c2c1 (stereo not drawn) [Example 279, 1-[1-(5-methoxy-1-benzothien-3-yl)-2-piperazin-1-ylethyl]cyclohexanol Dihydrochloride]	16
CC1CCC(O)(C(CN2CCNCC2)c2cccc3ccccc23)CC1 (stereo not drawn) [Example 97, 4-methyl-1-[1-(1-naphthyl)-2-piperazin-1-ylethyl]cyclohexanol Dihydrochloride]	5
CN1CCN(CC(c2cccc3ccccc23)C2(O)CCC(C(C)(C)C)CC2)CC1 (stereo not drawn) [Example 100, 4-tert-butyl-1-[2-(4-methylpiperazin-1-yl)-1-(1-naphthyl)ethyl]cyclohexanol Dihydrochloride]	4

Same assay, conditions: MDCK-Net6, read-out: % Inhibition @ 1 μM (hNET)

Structure (SMILES)	inhibition at 1 µM [%]
CN1CCN(C[C@H](c2csc(Cl)c2)C2(O)CCCCC2)CC1 [Example 259, 1-[(1S)-1-(5-chlorothien-3-yl)-2-(4-methylpiperazin-1-yl)ethyl]cyclohexanol Dihydrochloride]	20
OC1(C(CN2CCNCC2)c2cc(Cl)sc2Cl)CCCCC1 (stereo not drawn) [Example 141, 1-[1-(2,5-dichlorothien-3-yl)-2-piperazine-1-ylethyl]cyclohexanol Dihydrochloride]	94

Same assay, conditions: [3H]NE uptake, MDCK-Net6 cells

Structure (SMILES)	pEC50
OC1(C(CN2CCNCC2)c2cc(Cl)sc2Cl)CCCCC1 (stereo not drawn) [Example 141, 1-[1-(2,5-dichlorothien-3-yl)-2-piperazine-1-ylethyl]cyclohexanol Dihydrochloride]	6.62
